Test [1] deals with T1, Saccharomyces cerevisiae dihydroorotase (DHOase) (Saccharomyces cerevisiae, UniProt P20051).
T1 construct: gene URA4
T1 sequence (P20051 1-364): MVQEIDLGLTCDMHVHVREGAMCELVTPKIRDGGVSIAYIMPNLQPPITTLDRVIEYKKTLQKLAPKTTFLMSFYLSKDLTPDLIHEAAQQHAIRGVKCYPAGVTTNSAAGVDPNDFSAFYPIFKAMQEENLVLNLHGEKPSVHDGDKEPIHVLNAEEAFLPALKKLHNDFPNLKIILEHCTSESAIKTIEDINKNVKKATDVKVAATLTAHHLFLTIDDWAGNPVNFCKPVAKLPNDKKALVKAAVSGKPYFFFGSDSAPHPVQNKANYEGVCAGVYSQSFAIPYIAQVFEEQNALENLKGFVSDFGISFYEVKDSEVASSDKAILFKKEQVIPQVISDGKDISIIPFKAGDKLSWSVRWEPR
The test can be described thus: spectrophotometric assay of dihydroorotate hydrolysis at […] nm with purified recombinant enzyme; […] inhibition at […]. The class given is biochemical.

The target of test [2] is T1, Saccharomyces cerevisiae dihydroorotase (DHOase). Kind of test: spectrophotometric assay of dihydroorotate hydrolysis at […] nm with purified recombinant enzyme. The format is biochemical.

Turning to `O=C(O)c1[nH]c(=O)[nH]c(=O)c1F` [5-FOA], in test [1], the 50% inhibitory concentration (IC50) (usually the concentration that gives 50% inhibition) was greater than 600 µM.
Consider `O=c1c(O)c(-c2cc(O)c(O)c(O)c2)oc2cc(O)cc(O)c12` [myricetin], for which the IC50 in test [2] was determined as 12.5 ± 0.47 µM.

For the origin of these results see publication PMC12524618, “Conformational Dynamics of the Active Site Loop in Dihydroorotase Highlighting the Limitations of Loop-In Structures for Inhibitor Docking” (International Journal of Molecular Sciences, 2025).
